Test results taken from the supplement of paper PMC5662764.
± gives the standard deviation of the averaged measurements.

Key:
Assay in all cases: normalised growth rate inhibition (GR value) relative to DMSO control (GR (1 = untreated growth, 0 = cytostasis, <0 = cytotoxic)); higher = less growth inhibition
Conditions in all cases: 72 h
MDAMB231 = test system: MDAMB231
Protocol: (§1)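 Breast cancer cell lines (BT-20, Hs 578T, MCF 10A, MCF7, MDA-MB-231, SK-BR-3) were plated in 384-well plates and treated 24 h later with drugs at six concentrations (0.04-10 µM). Viable cells were counted by Hoechst/dead-cell-stain imaging at 0 and 72 h. Counts were normalised to DMSO controls on the same plate to give the relative cell count and the growth-rate inhibition (GR) value; technical plate triplicates were averaged for each biological replicate.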

MCF10A = test system: MCF10A
Protocol: as §1

SKBR3 = test system: SKBR3
Protocol: as §1

HS578T = test system: HS578T
Protocol: as §1

MCF7 = test system: MCF7
Protocol: as §1

BT20 = test system: BT20
Protocol: as §1

SMILES	normalised growth rate inhibition (MDAMB231; 0.04 µM)	normalised growth rate inhibition (MDAMB231; 0.12 µM)	normalised growth rate inhibition (MDAMB231; 0.37 µM)	normalised growth rate inhibition (MDAMB231; 1.11 µM)	normalised growth rate inhibition (MDAMB231; 3.33 µM)	normalised growth rate inhibition (MDAMB231; 10 µM)	normalised growth rate inhibition (MCF10A; 0.04 µM)	normalised growth rate inhibition (MCF10A; 0.12 µM)	normalised growth rate inhibition (MCF10A; 0.37 µM)	normalised growth rate inhibition (MCF10A; 1.11 µM)	normalised growth rate inhibition (MCF10A; 3.33 µM)	normalised growth rate inhibition (MCF10A; 10 µM)	normalised growth rate inhibition (SKBR3; 0.04 µM)	normalised growth rate inhibition (SKBR3; 0.12 µM)	normalised growth rate inhibition (SKBR3; 0.37 µM)	normalised growth rate inhibition (SKBR3; 1.11 µM)	normalised growth rate inhibition (SKBR3; 3.33 µM)	normalised growth rate inhibition (SKBR3; 10 µM)	normalised growth rate inhibition (HS578T; 0.04 µM)	normalised growth rate inhibition (HS578T; 0.12 µM)	normalised growth rate inhibition (HS578T; 0.37 µM)	normalised growth rate inhibition (HS578T; 1.11 µM)	normalised growth rate inhibition (HS578T; 3.33 µM)	normalised growth rate inhibition (HS578T; 10 µM)	normalised growth rate inhibition (MCF7; 0.04 µM)	normalised growth rate inhibition (MCF7; 0.12 µM)	normalised growth rate inhibition (MCF7; 0.37 µM)	normalised growth rate inhibition (MCF7; 1.11 µM)	normalised growth rate inhibition (MCF7; 3.33 µM)	normalised growth rate inhibition (MCF7; 10 µM)	normalised growth rate inhibition (BT20; 0.04 µM)	normalised growth rate inhibition (BT20; 0.12 µM)	normalised growth rate inhibition (BT20; 0.37 µM)	normalised growth rate inhibition (BT20; 1.11 µM)	normalised growth rate inhibition (BT20; 3.33 µM)	normalised growth rate inhibition (BT20; 10 µM)
O=C1c2c(O)ccc(O)c2C(=O)c2c(NCCNCCO)ccc(NCCNCCO)c21 [mitoxantrone]	-0.0551 ± 0.058	-0.0634 ± 0.075	-0.137 ± 0.1	-0.222 ± 0.15	-0.327 ± 0.24	-0.48 ± 0.21	0.228 ± 0.057	0.0237 ± 0.034	-0.00408 ± 0.025	-0.0492 ± 0.02	-0.186 ± 0.1	-0.142 ± 0.092	-0.0581 ± 0.17	-0.0745 ± 0.18	-0.0948 ± 0.2	-0.164 ± 0.17	-0.353 ± 0.13	-0.707 ± 0.16	0.0811 ± 0.1	-0.0173 ± 0.041	-0.0612 ± 0.043	-0.207 ± 0.087	-0.394 ± 0.11	-0.511 ± 0.17	0.0337 ± 0.042	0.0173 ± 0.037	0.0313 ± 0.056	-0.141 ± 0.11	-0.348 ± 0.039	-0.59 ± 0.15	0.252 ± 0.12	0.0494 ± 0.084	-0.0983 ± 0.12	-0.205 ± 0.14	-0.243 ± 0.12	-0.461 ± 0.18
N#CC(c1ccnc(NCCc2cccnc2)n1)c1nc2ccccc2s1 (stereo not drawn)	0.906 ± 0.026	0.905 ± 0.023	0.92 ± 0.023	0.94 ± 0.066	0.95 ± 0.096	0.726 ± 0.076	0.993 ± 0.015	0.986 ± 0.011	0.982 ± 0.011	0.987 ± 0.012	0.987 ± 0.016	0.707 ± 0.14	0.669 ± 0.056	0.809 ± 0.11	0.876 ± 0.081	0.84 ± 0.098	0.749 ± 0.13	0.383 ± 0.056	0.988 ± 0.016	1.01 ± 0.022	1.023 ± 0.0087	1.025 ± 0.0078	1.03 ± 0.023	0.932 ± 0.06	0.812 ± 0.044	0.877 ± 0.091	0.923 ± 0.12	0.883 ± 0.076	0.945 ± 0.085	0.659 ± 0.071	0.879 ± 0.031	0.922 ± 0.034	0.999 ± 0.044	1.03 ± 0.05	1.05 ± 0.035	1 ± 0.11
COc1cc(C(=O)N2CCC(N3CCN(C)CC3)CC2)ccc1Nc1ncc2c(n1)N(C)c1ccccc1C(=O)N2C [XMD-1150]	0.891 ± 0.054	0.818 ± 0.088	0.567 ± 0.12	0.353 ± 0.077	0.189 ± 0.029	0.0699 ± 0.13	0.973 ± 0.013	0.937 ± 0.021	0.841 ± 0.036	0.665 ± 0.078	0.384 ± 0.12	0.123 ± 0.052	0.677 ± 0.17	0.669 ± 0.12	0.609 ± 0.12	0.514 ± 0.16	0.348 ± 0.18	0.0641 ± 0.18	0.964 ± 0.035	0.913 ± 0.051	0.815 ± 0.034	0.66 ± 0.0096	0.411 ± 0.039	-0.053 ± 0.089	0.852 ± 0.021	0.784 ± 0.014	0.599 ± 0.018	0.365 ± 0.034	0.201 ± 0.012	0.0333 ± 0.0087	0.885 ± 0.11	0.85 ± 0.16	0.803 ± 0.16	0.722 ± 0.17	0.551 ± 0.12	0.238 ± 0.15
